According to the RepoRT retention time repository (doi:10.1021/acs.analchem.9b05135):

Assay: RP, Waters ACQUITY UPLC BEH C18, 100 × 1 mm, 1.7 µm, -1 °C, 0.15 mL/min, estimated dead time 0.33 min; A: water + 0.1% formic acid; B: acetonitrile + 0.1% formic acid; gradient (min/%B) 0/5 8/25 14/70 20/95 23/95
Conditions: stereoisomer not certain

LC retention time [min] | Structure (SMILES)
0.7 | Cc1ncccc1C(N)=O
0.6 | CCCC(=O)OC(CC(=O)[O-])C[N+](C)(C)C (centres undefined)
0.7 | CC(=O)OC(CC(=O)[O-])C[N+](C)(C)C (centres undefined)
0.8 | NC(=O)c1cccnc1
0.7 | CC(C)CC(=O)OC(CC(=O)[O-])C[N+](C)(C)C (centres undefined)
0.6 | CC(=O)NC(CCC(=O)O)C(=O)O (centres undefined)
0.7 | Cc1cn(C2CC(O)C(CO)O2)c(=O)[nH]c1=O (centres undefined)
0.6 | NC(COP(=O)(O)O)C(=O)O (centres undefined)
0.6 | C[N+](C)(C)CCO
0.7 | C[N+](C)(C)CCOP(=O)(O)O
0.6 | NC(=NCCCC(N)C(=O)O)NC(CC(=O)O)C(=O)O (centres undefined)
1.2 | Cc1cn(C2CC(O)C(COP(=O)(O)O)O2)c(=O)[nH]c1=O (centres undefined)
0.7 | CC(C)CC(N)C(=O)O (centres undefined)
1.2 | NC(Cc1c[nH]c2ccccc12)C(=O)O (centres undefined)
0.7 | C[N+](C)(C)CC(O)CC(=O)[O-] (centres undefined)
4 | Nc1ccnc(=O)[nH]1
0.9 | NC(CCO)C(=O)O (centres undefined)

LC retention time [min] | Structure (SMILES)
0.7 | CC(C)(CO)C(O)C(=O)NCCC(=O)O (centres undefined)
3 | NC(CCC(=O)NC(CS)C(=O)NCC(=O)O)C(=O)O (centres undefined)
0.5 | NC(=O)NCCCC(N)C(=O)O (centres undefined)
0.7 | CC(C)C(N)C(=O)O (centres undefined)
0.6 | CSCCC(NC(C)=O)C(=O)O (centres undefined)
0.7 | CNCC(=O)O
0.6 | CCC(=O)OC(CC(=O)[O-])C[N+](C)(C)C (centres undefined)
4.3 | CC(C(=O)O)C(O)(CC(=O)O)C(=O)O (centres undefined)
0.7 | Cc1c[nH]c(=O)[nH]c1=O
0.7 | CC(=O)NC1C(OP(=O)(O)OP(=O)(O)OCC2OC(n3ccc(=O)[nH]c3=O)C(O)C2O)OC(CO)C(O)C1O (centres undefined)
0.7 | CSCC1OC(n2cnc3c(N)ncnc32)C(O)C1O (centres undefined)
0.9 | Nc1ccccc1C(=O)CC(N)C(=O)O (centres undefined)
0.8 | NC(=O)CCC(N)C(=O)O (centres undefined)
0.6 | C[S+](CCC(N)C(=O)O)CC1OC(n2cnc3c(N)ncnc32)C(O)C1O (centres undefined)
0.6 | CS(=O)CCC(N)C(=O)O (centres undefined)
0.7 | CC(N)C(=O)O (centres undefined)
0.6 | CC(=O)NC(CCC(N)=O)C(=O)O (centres undefined)
